# Assay results taken from patent US20260226047A1, “BENZIMIDAZOLE AND AZA-BENZIMIDAZOLE BASED IL-17A MODULATORS AND USES THEREOF” (DICE ALPHA, INC., priority 2023, published 2026).
# Target: T1, IL-17A/A (Homo sapiens, UniProt Q16552)
# T1 construct: purchased Genscript Z03228
# T1 sequence (Q16552 24-155): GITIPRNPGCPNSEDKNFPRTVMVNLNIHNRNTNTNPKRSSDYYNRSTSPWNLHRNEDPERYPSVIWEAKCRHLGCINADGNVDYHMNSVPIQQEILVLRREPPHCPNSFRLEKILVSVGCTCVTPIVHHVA
# Experiment: IL-17A/A HEK-Blue Cell Assay
# Assay type: cell-based
# Details: IL-17A/A inhibition, HEK-Blue IL-17A reporter cell line, SEAP readout at A630, incubated for 20 hours
# Procedure: Example 3: IL-17A/A HEK-Blue Cell Assay
# The HEK-Blue IL-17A reporter cell line (Fisher #NC1408637) was used for cell-based IL-17A/A inhibition assays. Cells were grown and prepared for assays according to the manufacturer's instructions. This cell line consists of HEK 293 cells that were designed to expressed IL-17RA, IL-17RC, and the ActI adapter molecule, the combination of which, when stimulated by IL-17A/A activates a NFκB promoter and drives expression of a recombinant Secreted Alkaline Phosphatase (SEAP) gene protein. Media from the cells is then added to a development reagent (Quanti-Blue Substrate, Fisher #NC9711613), and read at A630.
# Compounds were titrated in DMSO, with a top final compound concentration of 10 μM, 1 uM, or 0.3 μM, and added to the cells immediately before adding IL-17A/A (Genscript #Z03228). The cells, compound, and IL-17A/A were then incubated for 20 hours before media was removed for SEAP analysis. The resulting inhibition curve was then analyzed using Graphpad Prism 7.0, and IC50 values were determined using a 4-parameter nonlinear fit. DMSO was added to a universal final concentration of 0.1% to optimize background.
row,Compound,IC50
1,CCn1nccc1C(=O)N[C@H](c1nc2ccc(C(C)C3CCCNC3=O)cc2[nH]1)C(C1CC1)C1CC1 (some centres unmarked) [Compound 81],> 1000 nM
2,CC[C@@H](C1CCC1)[C@H](NC(=O)c1ccnn1CC)c1nc2ccc(C[C@H]3CCNC3=O)cc2[nH]1 [Compound 65],100 to 1000 nM
3,Cc1nonc1C(=O)N[C@H](c1nc2ccc(C[C@H]3CCNC3=O)cc2[nH]1)C1CCC(F)(F)CC1 [Compound 67],100 to 1000 nM
4,CCc1nonc1C(=O)N[C@H](c1nc2ccc(C[C@H]3CCNC3=O)cc2[nH]1)C1CCC(F)(F)CC1 [Compound 25],100 to 1000 nM
5,CCn1nccc1C(=O)N[C@H](c1nc2cc(C[C@@H]3CCNC3=O)cc(F)c2[nH]1)C1CCC(F)(F)CC1 [Compound 14],> 1000 nM
6,CCn1nccc1C(=O)N[C@H](c1nc2ccc(C[C@@H]3CCCNC3=O)c(F)c2[nH]1)C(C1CC1)C1CC1 [Compound 36],> 1000 nM
7,CCn1nccc1C(=O)N[C@H](c1nc2c(F)c(C[C@H]3C[C@H](C(F)(F)F)NC3=O)ccc2[nH]1)C(C1CC1)C1CC1 [Compound 38],100 to 1000 nM
8,CCn1nccc1C(=O)N[C@H](c1nc2nc(C[C@H]3CCNC3=O)ccc2[nH]1)C1CCC(F)(F)CC1 [Compound 10],> 1000 nM
9,CCn1nccc1C(=O)N[C@H](c1nc2ccc(C[C@H]3CCCNC3=O)cc2[nH]1)[C@H]1CC[C@H](C)CC1 [Compound 87],> 1000 nM
10,"CCn1nccc1C(=O)N[C@H](c1nc2cc(C[C@H]3C[C@@H](C(F)(F)F)NC3=O)ccc2[nH]1)C(C1CC1)C1CC1 (single isomer, unassigned) [Compound 3]",< 100 nM
11,"CCn1nccc1C(=O)N[C@H](c1nc2c(F)c(CC3CCC(C(F)(F)F)NC3=O)ccc2[nH]1)C(C1CC1)C1CC1 (single isomer, unassigned) [Compound 51]",100 to 1000 nM
12,CCn1nccc1C(=O)N[C@H](c1nc2ccc(CC3C(=O)NC4CC43)cc2[nH]1)C(C1CC1)C1CC1 (some centres unmarked) [Compound 76],100 to 1000 nM
13,CCn1nccc1C(=O)N[C@H](c1nc2ccc(C[C@H]3CC(F)(F)CNC3=O)cc2[nH]1)C(C1CC1)C1CC1 [Compound 74],< 100 nM
14,"CCn1nccc1C(=O)N[C@H](c1nc2c(F)c(C[C@H]3CCNC3=O)ccc2[nH]1)C(C1CC1)C1CC1 (single isomer, unassigned) [Compound 1]",100 to 1000 nM
15,CCn1nccc1C(=O)N[C@H](c1nc2cc(C(C)C3CCNC3=O)ccc2[nH]1)C(C1CC1)C1CC1 (some centres unmarked) [Compound 21],100 to 1000 nM
16,CCn1nccc1C(=O)N[C@H](c1nc2ccc(C[C@H]3CCNC3=O)cc2[nH]1)[C@H]1CC[C@H](C)CC1 [Compound 61],< 100 nM
17,CCn1nccc1C(=O)N[C@H](c1nc2ccc(CC3CC(F)(F)CNC3=O)cc2[nH]1)C(C1CC1)C1CC1 (some centres unmarked) [Compound 73],100 to 1000 nM
18,CCn1nccc1C(=O)N[C@H](c1nc2ccc(C(COC)C3C[C@@H](C(F)(F)F)NC3=O)cc2[nH]1)C(C1CC1)C1CC1 (some centres unmarked) [Compound 78],> 1000 nM
19,CCn1nccc1C(=O)N[C@H](c1nc2cc(C[C@H]3CCNC3=O)cc(F)c2[nH]1)C1CCC(F)(F)CC1 [Compound 13],100 to 1000 nM

row,Compound,IC50
1,CC(C)n1nccc1C(=O)N[C@H](c1nc2ccc(C[C@H]3CCNC3=O)cc2[nH]1)C(C1CC1)C1CC1 [Compound 58],100 to 1000 nM
2,CCn1nccc1C(=O)N[C@H](c1nc2cc(C[C@H]3CCNC3=O)cc(F)c2[nH]1)C(C1CC1)C1CC1 [Compound 32],100 to 1000 nM
3,CCn1nccc1C(=O)N[C@H](c1nc2ccc(C(COC)C3C[C@@H](C(F)(F)F)NC3=O)cc2[nH]1)C(C1CC1)C1CC1 (some centres unmarked) [Compound 79],100 to 1000 nM
4,CCn1nccc1C(=O)N[C@H](c1nc2ccc(C[C@H]3CCNC3=O)cc2[nH]1)[C@@H](C)[C@H]1CC[C@H](C)CC1 [Compound 66],100 to 1000 nM
5,CCn1nccc1C(=O)N[C@H](c1nc2cc(CC3CCNC3=O)cc(C#N)c2[nH]1)C1CCC(F)(F)CC1 (some centres unmarked) [Compound 57],100 to 1000 nM
6,CCn1nccc1C(=O)N[C@H](c1nc2cc(CC3CCC(C(F)(F)F)NC3=O)ccc2[nH]1)C(C1CC1)C1CC1 (some centres unmarked) [Compound 43],100 to 1000 nM
7,CCn1nccc1C(=O)N[C@H](c1nc2ccc(CC3CC(C)NC3=O)cc2[nH]1)C(C1CC1)C1CC1 (some centres unmarked) [Compound 72],100 to 1000 nM
8,CCn1nccc1C(=O)N[C@H](c1nc2cc(C[C@@H]3CCNC3=O)ccc2[nH]1)C(C1CC1)C1CC1 [Compound 27],> 1000 nM
9,Cn1nccc1C(=O)N[C@H](c1nc2ccc(C[C@H]3CCNC3=O)cc2[nH]1)C(C1CC1)C1CC1 [Compound 59],100 to 1000 nM
10,CCn1nccc1C(=O)N[C@H](c1nc2nc(CC3CCNC3=O)ccc2[nH]1)C1CCC(F)(F)CC1 (some centres unmarked) [Compound 30],> 1000 nM
11,"CCn1nccc1C(=O)N[C@H](c1nc2c(F)c(CC3CCC(C(F)(F)F)NC3=O)ccc2[nH]1)C(C1CC1)C1CC1 (single isomer, unassigned) [Compound 50]",< 100 nM
12,CCn1nccc1C(=O)N[C@H](c1nc2ccc(CC3(C)CCNC3=O)cc2[nH]1)C(C1CC1)C1CC1 (some centres unmarked) [Compound 20],100 to 1000 nM
13,"CCn1nccc1C(=O)N[C@H](c1nc2c(F)c(CC3CCC(C(F)(F)F)NC3=O)ccc2[nH]1)C(C1CC1)C1CC1 (single isomer, unassigned) [Compound 48]",> 1000 nM
14,CCn1nccc1C(=O)NC(c1nc2nc(CC3CCNC3=O)ccc2[nH]1)C1CCC(F)(F)CC1 (mixture of isomers) [Compound 9],> 1000 nM
15,CCn1nccc1C(=O)N[C@H](c1nc2ccc(CC3(C)CCNC3=O)cc2[nH]1)C(C1CC1)C1CC1 (some centres unmarked) [Compound 19],> 1000 nM
16,CCn1nccc1C(=O)N[C@H](c1nc2c(F)c(CC3CCNC3=O)ccc2[nH]1)C1CCC(F)(F)CC1 (some centres unmarked) [Compound 11],100 to 1000 nM
17,CCn1nccc1C(=O)N[C@H](c1nc2cc(C[C@@H]3CCNC3=O)cc(F)c2[nH]1)C(C1CC1)C1CC1 [Compound 31],> 1000 nM
18,CCn1nccc1C(=O)N[C@H](c1nc2ccc(C[C@H]3CCCNC3=O)cc2[nH]1)C1CCC(F)(F)CC1 [Compound 86],> 1000 nM
19,"CCn1nccc1C(=O)N[C@H](c1nc2c(F)c(CC3CCNC3=O)ccc2[nH]1)C(C1CC1)C1CC1 (mixture of isomers) [Compound 2, N-((1S)-2,2-dicyclopropyl-1-(7-fluoro-6-((2-oxopyrrolidin-3-yl)methyl)-1H-benzo[d]imidazol-2-yl)ethyl)-1-ethyl-1H-pyrazole-5-carboxamide]",100 to 1000 nM

row,Compound,IC50
1,CCn1nccc1C(=O)N[C@@H](c1nc2nc(C[C@H]3CCNC3=O)ccc2[nH]1)C1CCC(F)(F)CC1 [Compound 28],> 1000 nM
2,CCn1nccc1C(=O)N[C@H](c1nc2ccc(C[C@@H]3CCCNC3=O)cc2[nH]1)C(C1CC1)C1CC1 [Compound 18],> 1000 nM
3,"CCn1nccc1C(=O)N[C@H](c1nc2c(F)c(CC3CCC(C(F)(F)F)NC3=O)ccc2[nH]1)C(C1CC1)C1CC1 (single isomer, unassigned) [Compound 47]",100 to 1000 nM
4,CCn1nccc1C(=O)N[C@H](c1nc2cc(C(C)C3CCNC3=O)ccc2[nH]1)C(C1CC1)C1CC1 (some centres unmarked) [Compound 23],> 1000 nM
5,CCn1nccc1C(=O)N[C@H](c1nc2cc(C(C)C3CCNC3=O)ccc2[nH]1)C(C1CC1)C1CC1 (some centres unmarked) [Compound 24],> 1000 nM
6,CCn1nccc1C(=O)N[C@H](c1nc2ccc(CC3CCCNC3=O)cc2[nH]1)C(C1CC1)C1CC1 (some centres unmarked) [Compound 17],100 to 1000 nM
7,CCn1nccc1C(=O)N[C@H](c1nc2ccc(C(C)C3CCCNC3=O)cc2[nH]1)C(C1CC1)C1CC1 (some centres unmarked) [Compound 82],100 to 1000 nM
8,CCn1nccc1C(=O)N[C@H](c1nc2ccc(C(C)C3CCCNC3=O)cc2[nH]1)C(C1CC1)C1CC1 (some centres unmarked) [Compound 84],100 to 1000 nM
9,CCn1nccc1C(=O)N[C@H](c1nc2cc(C[C@H]3CCNC3=O)ccc2[nH]1)C1CCC(F)(F)CC1 [Compound 7],100 to 1000 nM
10,CC[C@@H](c1ccc(F)cc1)[C@H](NC(=O)c1ccnn1CC)c1nc2ccc(C[C@H]3CCNC3=O)cc2[nH]1 [Compound 63],> 1000 nM
11,CCn1nccc1C(=O)N[C@H](c1nc2ccc(CC3CCC(C)NC3=O)cc2[nH]1)C(C1CC1)C1CC1 (some centres unmarked) [Compound 70],100 to 1000 nM
12,"CCn1nccc1C(=O)N[C@H](c1nc2cc(C[C@@H]3C[C@@H](C(F)(F)F)NC3=O)ccc2[nH]1)C(C1CC1)C1CC1 (single isomer, unassigned) [Compound 4]",100 to 1000 nM
13,CCn1nccc1C(=O)N[C@H](c1nc2c(F)c(C[C@H]3C[C@@H](C(F)(F)F)NC3=O)ccc2[nH]1)C(C1CC1)C1CC1 [Compound 40],< 100 nM
14,O=C1N[C@H](C(F)(F)F)C[C@@H]1Cc1ccc2nc([C@@H](NC(=O)C3(F)CC3)C(C3CC3)C3CC3)[nH]c2c1 [Compound 69],100 to 1000 nM
15,CCn1nccc1C(=O)N[C@H](c1nc2cc(CC3CCC(C(F)(F)F)NC3=O)ccc2[nH]1)C(C1CC1)C1CC1 (some centres unmarked) [Compound 45],100 to 1000 nM
16,CCn1nccc1C(=O)N[C@H](c1nc2cc(CC3CCC(C(F)(F)F)NC3=O)cc(F)c2[nH]1)C(C1CC1)C1CC1 (some centres unmarked) [Compound 55],> 1000 nM
17,CCn1nccc1C(=O)N[C@@H](c1nc2nc(CC3CCNC3=O)ccc2[nH]1)C1CCC(F)(F)CC1 (some centres unmarked) [Compound 29],> 1000 nM
18,CCn1nccc1C(=O)N[C@H](c1nc2cc(CC3CCC(C(F)(F)F)NC3=O)ccc2[nH]1)C(C1CC1)C1CC1 (some centres unmarked) [Compound 46],> 1000 nM
